Experimental data from US20250011881A1, “MYC-HSF1 DUAL AMPLIFICATION AS A BIOMARKER FOR CANCER TREATMENT” (The Trustees of Indiana University, priority 2023, published 2025).
Where a name gives a salt, the structure may show the parent alone.

test system: ovarian cancer cells with (OVCAR8, OVCAR4) or without (OVSAHO, CAOV3) MYC-HSF1 amplification; experiment: Epigenetic inhibitor drug screen, cell viability (Cell Titer Blue); format: cell-based; settings: not given

Row | Compound | Non Amp - AMP (POC) 10 uM
1 | CCN1CCN(C(=O)Cc2ccc(Nc3ncc(F)c(Nc4ccc(C(=O)Nc5ccccc5Cl)cc4)n3)cc2)CC1 [Aurora A Inhibitor I] | 8.339 POC
2 | CCC(=O)CCCCC[C@@H]1NC(=O)[C@H]2CCCCN2C(=O)[C@H]([C@@H](C)CC)NC(=O)[C@H](Cc2cn(OC)c3ccccc23)NC1=O [Apicidin] | 45.97 POC
3 | CCS(=O)(=O)Nc1ccc2c(c1)/C(=C(/Nc1ccc(CN3CCCCC3)cc1)c1ccccc1)C(=O)N2 [Hesperadin] | 39.85 POC
4 | Cl.Cl.c1cc(-c2cnn3cc(-c4ccc(OCCN5CCCCC5)cc4)cnc23)ccn1 [Dorsomorphin 2HCl] | 15.62 POC
5 | O=C(Nc1ccc(CN2CCOCC2)cc1)c1ccc(-c2cccc(Cl)c2)o1 [CID 2011756] | 21.79 POC

same assay, conditions: 10 uM, 48 hrs; average relative cell viability (vs 1% DMSO) of non-amplified cells (OVSAHO, CAOV3) minus that of MYC-HSF1 amplified cells (OVCAR8, OVCAR4); positive = greater response in amplified cells

Row | Compound | Non Amp - AMP (POC) 10 uM
6 | COC(=O)CNC(=O)C(=O)OC [DMOG] | −8.654 POC
7 | CC(C)OC(=O)CCC/C=C\C[C@@H]1[C@@H](CC[C@@H](O)CCc2ccccc2)[C@H](O)C[C@@H]1O [Latanoprost] | −8.842 POC
8 | O=c1c(O)c(-c2ccc(O)c(O)c2)oc2cc(O)ccc12 [Fisetin] | 10.02 POC
9 | O=C(CCl)Nc1ccc(S(=O)(=O)c2ccc(NC(=O)CCl)cc2)cc1 [TC-E 5003] | 0.7453 POC
10 | CCCCCCCCOC(=O)C(O)CCC(=O)O (centres unmarked) [Octyl-a-hydroxyglutarate] | 0.5587 POC
11 | COC1CCN(C(=O)c2cc(Cc3n[nH]c(=O)c4ccccc34)ccc2F)CC1 [AZD2461] | 9.593 POC
12 | Cc1csc(-c2nnc(Nc3ccc(Oc4ncccc4-c4ccnc(N)n4)cc3)c3ccccc23)c1 [AMG-900] | 4.126 POC
13 | Cc1nc(C(=O)NCC(=O)O)c(O)c2ccc(Oc3ccccc3)cc12 [FG-4592 (ASP1517)] | −0.1816 POC
14 | Cl.NC(=O)[C@H](CCCN=C(N)CCl)NC(=O)c1ccccc1 [CI-Amidine (hydrochloride), CI-Amidine] | 5.451 POC
15 | O=C(/C=C/c1cccc(S(=O)(=O)Nc2ccccc2)c1)NO [Belinostat (PXD101), Belinostat] | 12.55 POC
16 | O=c1c(-n2ccnn2)c[nH]n1-c1cc(N2CCOCC2)ncn1 [Molidustat (BAY85-3934), Molidustat] | −4.287 POC
17 | N#C/C(=C/c1ccc(O)c(O)c1)C(=O)NCc1ccccc1 [AG-490] | −10.83 POC
18 | Cn1c2ccccc2c2c3c(c4c5ccccc5n(CCC#N)c4c21)CNC3=O [Go 6976] | 5.045 POC
19 | Cc1cc(Nc2nc(N[C@@H](C)c3ncc(F)cn3)ncc2Cl)[nH]n1 [AZD1480] | 0.4361 POC
20 | SNS-314 Mesylate | 1.355 POC
21 | CO[C@@H]1[C@H](N(C)C(=O)c2ccccc2)C[C@H]2O[C@]1(C)n1c3ccccc3c3c4c(c5c6ccccc6n2c5c31)C(=O)NC4 [Midostaurin (PKC412), Midostaurin] | −9.891 POC
22 | Nc1nc(Nc2ccc(S(N)(=O)=O)cc2)nn1C(=O)c1c(F)cccc1F [JNJ-7706621] | −15.24 POC
23 | CS(=O)(=O)c1ccc(-c2cnc(NCc3ccco3)n3cnnc23)cc1 [EED226] | 32.64 POC
24 | CCS(=O)(=O)c1cccc(-c2cc(C(=O)NC3CCN(C)CC3)c(C)c3[nH]c4ncc(C)cc4c23)c1 [TAK-901] | 3.351 POC
25 | CC1(C)C(=O)N=C2C1=C(O)C(=O)c1ccccc12 [BVT 948] | 22.87 POC

Row | Compound | Non Amp - AMP (POC) 10 uM
26 | NC(=O)c1ccc(I)c([N+](=O)[O-])c1 [Iniparib (BSI-201), Iniparib] | −7.53 POC
27 | O=S(=O)(O)c1ccc2cc(N=Nc3cc(S(=O)(=O)O)c4cccnc4c3O)ccc2c1 [NSC 87877] | 8.877 POC
28 | CCS(=O)(=O)N1CC(CC#N)(n2cc(-c3ncnc4[nH]ccc34)cn2)C1.O=P(O)(O)O [Baricitirib phosphate] | 7.373 POC
29 | CC(C)(CCCCCC(O)CCCCCC(C)(C)C(=O)O)C(=O)O [ETC-1002] | −2.506 POC
30 | N[C@@H]1CCCN(c2c(/C=C3\SC(=O)NC3=O)cccc2-c2ccccc2)C1 [AZD1208] | 10.38 POC
31 | AZD1152 | −6.485 POC
32 | Cc1cc(-c2nc(-c3ccc(OC(F)(F)F)cc3)no2)nn1Cc1ccnc(N2CCN(C3CC3)CC2)c1 [BAY 87-2243] | 11.79 POC
33 | COc1cc2c(NC3CCN(CC4CCCCC4)CC3)nc(N3CCCN(C(C)C)CC3)nc2cc1OCCCN1CCCCC1 [UNC 0631] | 34.73 POC
34 | COc1cc2nc(N3CCCN(C)CC3)nc(NC3CCN(Cc4ccccc4)CC3)c2cc1OC [BIX 01294] | −4.372 POC
35 | N#Cc1c(Oc2ccc(F)c(NC(=O)Cc3cccc(C(F)(F)F)c3)c2)ccc2nc(NC(=O)C3CC3)sc12 [TAK-632] | −12.18 POC
36 | Cc1cc(Cl)ccc1OCCCC(=O)NO [Droxinostat] | −21.53 POC
37 | CN1CCN(c2cccc(Nc3nc4c(-c5ccc(S(C)(=O)=O)cc5)cccn4n3)c2)CC1 [CEP-33779] | 15.1 POC
38 | CCc1cccc(CC)c1NC(=O)N1Cc2n[nH]c(NC(=O)c3ccc(N4CCN(C)CC4)cc3)c2C1 [PHA-680632] | −11.28 POC
39 | N#Cc1c(O)c2c(-c3ccc(-c4ccccc4O)cc3)csc2[nH]c1=O [A-769662] | −2.694 POC
40 | Cn1cc(C2=C(c3cn(C4CCN(Cc5ccccn5)CC4)c4ccccc34)C(=O)NC2=O)c2ccccc21 [Enzastaurin (LY317615), Enzastaurin] | 13.08 POC
41 | CCN(CC)CCNC(=O)c1ccc(N)cc1 [Procainamide HCl] | 4.095 POC
42 | CC(C)c1ccc(-c2cc(=O)c3ccccc3o2)cc1 [MN 64] | −7.835 POC
43 | CNNCc1ccc(C(=O)NC(C)C)cc1 [Procarbazine HCl] | 1.149 POC
44 | C[C@@H]1CC[C@@]2(OC1)O[C@H]1C[C@H]3[C@@H]4CC=C5C[C@@H](O)CC[C@]5(C)[C@H]4CC[C@]3(C)[C@H]1[C@@H]2C [Diosgenin] | 5.646 POC
45 | O=C(Nc1ccc(-c2ccnc(Nc3ccc(N4CCOCC4)cc3)n2)cc1)C1CCCN1 (centres unmarked) [XL019] | −14.18 POC

same assay, conditions: 10 uM, 48 hrs; average relative cell viability (vs 1% DMSO) of non-amplified cells (OVSAHO, CAOV3) minus that of MYC-HSF1 amplified cells (OVCAR8, OVCAR4); positive = greater response in amplified cells; 10 µM

Row | Compound | Non Amp - AMP (POC) 10 uM
46 | C[C@@H]1CCN(C(=O)CC#N)C[C@@H]1N(C)c1ncnc2[nH]ccc12 [Tofacitinib (CP-690550, Tasocitinib), Tofacitinib] | −2.781 POC
47 | C[C@@H]1CCN(C(=O)CC#N)C[C@@H]1N(C)c1ncnc2[nH]ccc12 [Tofacitinib (CP-690550) Citrate, Tofacitinib] | 3.666 POC
48 | Fc1cc(-c2cccc3ncc(-c4cnn(C5CCNCC5)c4)nc23)cc(F)c1CN1CCOCC1 [NVP-BSK805] | −1.371 POC
49 | CNCc1ccc(-c2[nH]c3cc(F)cc4c3c2CCNC4=O)cc1 [Rucaparib (AG-014699, PF-01367338), Rucaparib] | 0.4948 POC
50 | CCCCNNC(=O)c1ccc(Br)cc1 [UF010] | 54.18 POC
51 | Cc1sc2c(c1C)C(c1ccc(Cl)cc1)=N[C@@H](CC(=O)Nc1ccc(O)cc1)c1nnc(C)n1-2 [OTX015] | 15.65 POC
52 | COc1cccc2c1C(=O)c1c(O)c3c(c(O)c1C2=O)C[C@@](O)(C(=O)CO)C[C@@H]3O[C@H]1C[C@H](N)[C@H](O)[C@H](C)O1 [Doxorubicin] | 4.864 POC
53 | CCOC(=O)NCCCC(=O)NCCc1ccccc1 [CAY10683, Santacruzamate A] | 18.98 POC
54 | COc1ccc2c(c[n+](C)c3c4cc5c(cc4ccc23)OCO5)c1OC [Chelerythrine] | −18.62 POC
55 | CC[C@@H]1C(=O)N(C)c2cnc(Nc3ccc(C(=O)NC4CCN(C)CC4)cc3OC)nc2N1C1CCCC1 [BI-2536] | 15.69 POC
56 | CCCCCCCCCCCCCCCc1cccc(O)c1C(=O)O [Anacardic acid] | 17.46 POC
57 | CCCc1cc2c(N3CCN(C4=NCC(C)(C)S4)CC3)ncnc2s1 [MI-2 (hydrochloride)] | 6.017 POC
58 | O=C(CCCCCCC(=O)Nc1ccccc1)NO [Vorinostat (SAHA, MK0683), Vorinostat] | 37.32 POC
59 | Nc1ccn([C@@H]2O[C@H](CO)[C@@H](O)C2(F)F)c(=O)n1 [Gemcitabine] | 28.61 POC

same assay, conditions: 10 uM, 48 hrs; average relative cell viability (vs 1% DMSO) of non-amplified cells (OVSAHO, CAOV3) minus that of MYC-HSF1 amplified cells (OVCAR8, OVCAR4); positive = greater response in amplified cells; listed as Anacardic Acid, 10 µM

Row | Compound | Non Amp - AMP (POC) 10 uM
60 | CCCCCCCCCCCCCCCc1cccc(O)c1C(=O)O [Anacardic acid] | 5.093 POC

same assay, conditions: 10 uM, 48 hrs; average relative cell viability (vs 1% DMSO) of non-amplified cells (OVSAHO, CAOV3) minus that of MYC-HSF1 amplified cells (OVCAR8, OVCAR4); positive = greater response in amplified cells; listed as BI 2536, 10 µM

Row | Compound | Non Amp - AMP (POC) 10 uM
61 | CC[C@@H]1C(=O)N(C)c2cnc(Nc3ccc(C(=O)NC4CCN(C)CC4)cc3OC)nc2N1C1CCCC1 [BI-2536] | −3.682 POC

same assay, conditions: 10 uM, 48 hrs; average relative cell viability (vs 1% DMSO) of non-amplified cells (OVSAHO, CAOV3) minus that of MYC-HSF1 amplified cells (OVCAR8, OVCAR4); positive = greater response in amplified cells; listed as OTX-015, 10 µM

Row | Compound | Non Amp - AMP (POC) 10 uM
62 | Cc1sc2c(c1C)C(c1ccc(Cl)cc1)=N[C@@H](CC(=O)Nc1ccc(O)cc1)c1nnc(C)n1-2 [OTX015] | 2.251 POC

same assay, conditions: 10 uM, 48 hrs; average relative cell viability (vs 1% DMSO) of non-amplified cells (OVSAHO, CAOV3) minus that of MYC-HSF1 amplified cells (OVCAR8, OVCAR4); positive = greater response in amplified cells; listed as SAHA, 10 µM

Row | Compound | Non Amp - AMP (POC) 10 uM
63 | O=C(CCCCCCC(=O)Nc1ccccc1)NO [Vorinostat (SAHA, MK0683), Vorinostat] | 44.79 POC

same assay, conditions: 10 uM, 48 hrs; average relative cell viability (vs 1% DMSO) of non-amplified cells (OVSAHO, CAOV3) minus that of MYC-HSF1 amplified cells (OVCAR8, OVCAR4); positive = greater response in amplified cells; listed as Santacruzamate A (CAY10683), 10 µM

Row | Compound | Non Amp - AMP (POC) 10 uM
64 | CCOC(=O)NCCCC(=O)NCCc1ccccc1 [CAY10683, Santacruzamate A] | −0.9653 POC

same assay, conditions: 10 uM, 48 hrs; average relative cell viability (vs 1% DMSO) of non-amplified cells (OVSAHO, CAOV3) minus that of MYC-HSF1 amplified cells (OVCAR8, OVCAR4); positive = greater response in amplified cells; listed as UF 010, 10 µM

Row | Compound | Non Amp - AMP (POC) 10 uM
65 | CCCCNNC(=O)c1ccc(Br)cc1 [UF010] | 21.86 POC
